Species on record: Rattus norvegicus
Assay: DrugMatrix - Regimen: Daily Repeat
Format: toxicity, organism-based, Sprague-Dawley
Design: regimen Daily Repeat, gender Male, age 6-8 weeks
Details: in vivo, po, route oral GAVAGE, […]; for ABSOLUTE BASOPHIL / ABSOLUTE EOSINOPHIL / ABSOLUTE LYMPHOCYTE / ABSOLUTE MONOCYTE / ABSOLUTE SEGMENTED NEUTROPHIL / BASOPHIL / EOSINOPHIL / ERYTHROCYTE COUNT / HEMATOCRIT / HEMOGLOBIN / LEUKOCYTE COUNT / LYMPHOCYTE / MEAN CORPUSCULAR HEMOGLOBIN / MEAN CORPUSCULAR HEMOGLOBIN CONCENTRATION / MONOCYTE / NEUTROPHIL / NUCLEATED RED BLOOD CELLS / PLATELET COUNT: tissue Blood; for ALANINE AMINOTRANSFERASE / ALBUMIN / ALKALINE PHOSPHATASE / ASPARTATE AMINOTRANSFERASE / BLOOD UREA NITROGEN / CARBON DIOXIDE / CHLORIDE / CHOLESTEROL / CREATINE PHOSPHOKINASE / CREATININE / GLUCOSE / LACTATE DEHYDROGENASE / LIPASE / PHOSPHORUS / POTASSIUM / SODIUM / TOTAL BILIRUBIN / TOTAL PROTEIN / URIC ACID: tissue Plasma
[1] = 0 mg/kg, 72 h, dose level Control, time 3 day
[2] = 0 mg/kg, 120 h, dose level Control, time 5 day
[3] = 0.2 mg/kg, 72 h, dose level Low, time 3 day

## CCOC(=O)C1=C(COCCN)NC(C)=C(C(=O)OC)C1c1ccccc1Cl (stereo not given) [AMLODIPINE]
[1]
  ABSOLUTE BASOPHIL: 0 CELLS/uL
  ABSOLUTE EOSINOPHIL: 70.67 CELLS/uL
  ABSOLUTE LYMPHOCYTE: 12761.5 CELLS/uL
  ABSOLUTE MONOCYTE: 214.17 CELLS/uL
  ABSOLUTE SEGMENTED NEUTROPHIL: 987 CELLS/uL
  BASOPHIL: 0%
  EOSINOPHIL: 0.5%
  ERYTHROCYTE COUNT: 5.61 x10E6/uL
  HEMATOCRIT: 35.22%
  HEMOGLOBIN: 13.57 G/DL
  LEUKOCYTE COUNT: 14.03 x10E3/uL
  LYMPHOCYTE: 91%
  MEAN CORPUSCULAR HEMOGLOBIN: 24.25 pg
  MEAN CORPUSCULAR HEMOGLOBIN CONCENTRATION: 38.52 G/DL
  MONOCYTE: 1.5%
  NEUTROPHIL: 7%
  NUCLEATED RED BLOOD CELLS: 0 /100WBC
  PLATELET COUNT: 997.5 x10E3/uL
  ALANINE AMINOTRANSFERASE: 66.5 u/L
  ALBUMIN: 3.98 G/DL
  ALKALINE PHOSPHATASE: 350 u/L
  ASPARTATE AMINOTRANSFERASE: 83.83 u/L
  BLOOD UREA NITROGEN: 12.33 mg/dL
  CARBON DIOXIDE: 30.33 mmol/L
  CHLORIDE: 100 MEQ/L
  CHOLESTEROL: 75 mg/dL
  CREATINE PHOSPHOKINASE: 200 u/L
  CREATININE: 0.17 mg/dL
  GLUCOSE: 170 mg/dL
  LACTATE DEHYDROGENASE: 89.33 u/L
  LIPASE: 10.33 u/L
  PHOSPHORUS: 10.88 mg/dL
  POTASSIUM: 6.13 MEQ/L
  SODIUM: 140.53 MEQ/L
  TOTAL BILIRUBIN: 0.2 mg/dL
  TOTAL PROTEIN: 5.67 G/DL
  URIC ACID: 1.6 mg/dL
[2]
  ABSOLUTE BASOPHIL: 0 CELLS/uL
  ABSOLUTE EOSINOPHIL: 0 CELLS/uL
  ABSOLUTE LYMPHOCYTE: 9526.67 CELLS/uL
  ABSOLUTE MONOCYTE: 134.17 CELLS/uL
  ABSOLUTE SEGMENTED NEUTROPHIL: 922.5 CELLS/uL
  BASOPHIL: 0%
  EOSINOPHIL: 0%
  ERYTHROCYTE COUNT: 5.58 x10E6/uL
  HEMATOCRIT: 34.78%
  HEMOGLOBIN: 13.5 G/DL
  LEUKOCYTE COUNT: 10.58 x10E3/uL
  LYMPHOCYTE: 90.17%
  MEAN CORPUSCULAR HEMOGLOBIN: 24.27 pg
  MEAN CORPUSCULAR HEMOGLOBIN CONCENTRATION: 38.82 G/DL
  MONOCYTE: 1.17%
  NEUTROPHIL: 8.67%
  NUCLEATED RED BLOOD CELLS: 0.17 /100WBC
  PLATELET COUNT: 807.17 x10E3/uL
  ALANINE AMINOTRANSFERASE: 66.83 u/L
  ALBUMIN: 3.73 G/DL
  ALKALINE PHOSPHATASE: 286.17 u/L
  ASPARTATE AMINOTRANSFERASE: 142.33 u/L
  BLOOD UREA NITROGEN: 14.67 mg/dL
  CARBON DIOXIDE: 25.5 mmol/L
  CHLORIDE: 89.17 MEQ/L
  CHOLESTEROL: 75.17 mg/dL
  CREATINE PHOSPHOKINASE: 310.67 u/L
  CREATININE: 0.2 mg/dL
  GLUCOSE: 153 mg/dL
  LACTATE DEHYDROGENASE: 1594 u/L
  LIPASE: 14.83 u/L
  PHOSPHORUS: 11.28 mg/dL
  POTASSIUM: 8.46 MEQ/L
  SODIUM: 126.88 MEQ/L
  TOTAL BILIRUBIN: 0.37 mg/dL
  TOTAL PROTEIN: 5.53 G/DL
  URIC ACID: 1.52 mg/dL
[3]
  ABSOLUTE BASOPHIL: 0 CELLS/uL
  ABSOLUTE EOSINOPHIL: 0 CELLS/uL
  ABSOLUTE LYMPHOCYTE: 9376 CELLS/uL
  ABSOLUTE MONOCYTE: 215 CELLS/uL
  ABSOLUTE SEGMENTED NEUTROPHIL: 975.67 CELLS/uL
  BASOPHIL: 0%
  EOSINOPHIL: 0%
  ERYTHROCYTE COUNT: 5.44 x10E6/uL
  HEMATOCRIT: 34.4%
  HEMOGLOBIN: 13.67 G/DL
  LEUKOCYTE COUNT: 10.57 x10E3/uL
  LYMPHOCYTE: 88.67%
  MEAN CORPUSCULAR HEMOGLOBIN: 25.13 pg
  MEAN CORPUSCULAR HEMOGLOBIN CONCENTRATION: 39.73 G/DL
  MONOCYTE: 2%
  NEUTROPHIL: 9.33%
  NUCLEATED RED BLOOD CELLS: 0 /100WBC
  PLATELET COUNT: 1115 x10E3/uL
  ALANINE AMINOTRANSFERASE: 74.33 u/L
  ALBUMIN: 4 G/DL
  ALKALINE PHOSPHATASE: 391 u/L
  ASPARTATE AMINOTRANSFERASE: 107.33 u/L
  BLOOD UREA NITROGEN: 11 mg/dL
  CARBON DIOXIDE: 28.67 mmol/L
  CHLORIDE: 100.67 MEQ/L
  CHOLESTEROL: 69.67 mg/dL
  CREATINE PHOSPHOKINASE: 1227 u/L
  CREATININE: 0.14 mg/dL
  GLUCOSE: 178 mg/dL
  LACTATE DEHYDROGENASE: 183 u/L
  LIPASE: 11 u/L
  PHOSPHORUS: 10.73 mg/dL
  POTASSIUM: 5.94 MEQ/L
  SODIUM: 141 MEQ/L
  TOTAL BILIRUBIN: 0.2 mg/dL
  TOTAL PROTEIN: 5.73 G/DL

— ChEMBL document CHEMBL3885881, “DrugMatrix”
